Experimental data published in article PMC10713630, “Elucidation of the structural basis for ligand binding and translocation in conserved insect odorant receptor co-receptors” (Nature Communications, 2023).
pEC50: −log10 of the molar value. Values joined by “and” are separate entries in the source; they are usually repeats but may differ in a detail not shown here. Equal entries are not always repeated. “Also recorded” adds a separate entry of the source.

Assays:
DmelOrco L141W = DmelOrco L141W (Drosophila melanogaster, UniProt Q9VNB5, L141W); experiment: TEVC recording of VUAA1-induced current, DmelOrco L141W in Xenopus oocytes; type: cell-based; conditions: 500 µM VUAA1, TEVC
Excerpt: (§1) All Orco gene sequences were optimized[63] for protein expression in Xenopus laevis oocytes with the GenSmartTM Codon optimization Tool and subcloned into a pGEMHE-derived vector. The wildtype gene of Drosophila melanogaster Orco (DmelOrco) was synthesized by Genscript and subcloned with XmaI/XhoI cloning sites. Site-directed mutagenesis of DmelOrco was done by PCR with the Q5® site directed mutagenesis kit (NEB) using primers optimized with the NEBase Changer online tool and following the supplier’s protocol. After transformation of commercial competent bacteria (XL10 Gold) by standard heat-shock protocol and overnight culture in ampicillin-containing LB plates, positive clones were identified by electrophoretic restriction profile and external sequencing (Genewiz). DNAs of positive clones were amplified with Qiagen MidiPrep Kit and the ORF was fully sequenced. […] DNA and RNA were analyzed by agarose-gel electrophoresis and quantified by spectrophotometry. […]
(§2) Whole cell currents were recorded with the two-electrode voltage-clamp (TEVC) technique with the HiClamp robot (MultiChannel System). […] Data were extracted with M. Vivaudou’s programs[65] and statistically analyzed with Prism 8 (Graphpad). […]
(§3) 100 by 500 µM of the ligand VUAA1 and measured by TEVC recordings on DmelOrco WT and mutants […]

DmelOrco Y397F = DmelOrco Y397F (Drosophila melanogaster, UniProt Q9VNB5, Y397F); experiment: TEVC recording of VUAA1-induced current, DmelOrco Y397F in Xenopus oocytes; type: cell-based; set-up: VUAA1-induced current, Y397F: unit not given here
Excerpt: as §1, with “sequenced. For in vitro transcription, DNAs were linearized with restriction enzyme NotI that cuts a unique site in the 3′ region of the polyA tail.” for “sequenced.”
(§4) Whole cell currents were recorded with the two-electrode voltage-clamp (TEVC) technique with the HiClamp robot (MultiChannel System). […] Data were extracted with M. Vivaudou’s programs[65] and statistically analyzed with Prism 8 (Graphpad).

DmelOrco L141V = DmelOrco L141V (Drosophila melanogaster, UniProt Q9VNB5, L141V); experiment: TEVC recording of VUAA1-induced current, DmelOrco L141V in Xenopus oocytes; type: cell-based; conditions: 500 µM VUAA1, TEVC
Excerpt: as §1, §2, §3

DmelOrco F83A = DmelOrco F83A (Drosophila melanogaster, UniProt Q9VNB5, F83A); experiment: TEVC recording of VUAA1-induced current, DmelOrco F83A in Xenopus oocytes; type: cell-based; conditions: 500 µM VUAA1, TEVC
Excerpt: as §1, with “sequenced. For in vitro transcription, DNAs were linearized with restriction enzyme NotI that cuts a unique site in the 3′ region of the polyA tail.” for “sequenced.”
as §4

AgamOrco/AgamOR65 = conditions: AgamOrco/AgamOR65; ref Tailor et al. 1; cited from earlier work
DmelOrco W150A = DmelOrco W150A (Drosophila melanogaster, UniProt Q9VNB5, W150A); experiment: TEVC recording of VUAA1-induced current, DmelOrco W150A in Xenopus oocytes; type: cell-based; set-up: VUAA1-induced current, W150A: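 current amplitude in µA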
Excerpt: as §1, with “sequenced. For in vitro transcription, DNAs were linearized with restriction enzyme NotI that cuts a unique site in the 3′ region of the polyA tail.” for “sequenced.”
as §4

DmelOrco F84W = DmelOrco F84W (Drosophila melanogaster, UniProt Q9VNB5, F84W); experiment: TEVC recording of VUAA1-induced current, DmelOrco F84W in Xenopus oocytes; type: cell-based; conditions: 500 µM VUAA1, TEVC
Excerpt: as §1, with “sequenced. For in vitro transcription, DNAs were linearized with restriction enzyme NotI that cuts a unique site in the 3′ region of the polyA tail.” for “sequenced.”
as §4

DmelOrco Y400W = DmelOrco Y400W (Drosophila melanogaster, UniProt Q9VNB5, Y400W); experiment: TEVC recording of VUAA1-induced current, DmelOrco Y400W in Xenopus oocytes; type: cell-based; conditions: 500 µM VUAA1, TEVC
Excerpt: as §1, with “sequenced. For in vitro transcription, DNAs were linearized with restriction enzyme NotI that cuts a unique site in the 3′ region of the polyA tail.” for “sequenced.”
as §4

DmelOrco T80W = DmelOrco T80W (Drosophila melanogaster, UniProt Q9VNB5, T80W); experiment: TEVC recording of VUAA1-induced current, DmelOrco T80W in Xenopus oocytes; type: cell-based; set-up: VUAA1-induced current, T80W: unit not given here; conditions: for VUAA1-induced current, T80W: individual oocytes
Excerpt: All Orco gene sequences were optimized[63] for protein expression in Xenopus laevis oocytes with the GenSmartTM Codon optimization Tool and subcloned into a pGEMHE-derived vector. The wildtype gene of Drosophila melanogaster Orco (DmelOrco) was synthesized by Genscript and subcloned with XmaI/XhoI cloning sites. Site-directed mutagenesis of DmelOrco was done by PCR with the Q5® site directed mutagenesis kit (NEB) using primers optimized with the NEBase Changer online tool and following the supplier’s protocol. After transformation of commercial competent bacteria (XL10 Gold) by standard heat-shock protocol and overnight culture in ampicillin-containing LB plates, positive clones were identified by electrophoretic restriction profile and external sequencing (Genewiz). DNAs of positive clones were amplified with Qiagen MidiPrep Kit and the ORF was fully sequenced. For in vitro transcription, DNAs were linearized with restriction enzyme NotI that cuts a unique site in the 3′ region of the polyA tail. The linearized DNAs were purified by the standard phenol:chloroform extraction method and transcribed into mRNA using the T7 ultra mMessage mMachine kit (Thermo Fisher Scientific). mRNAs were purified with the NucleoSpin RNA plus XS kit (Machery-Nagel). DNA and RNA were analyzed by agarose-gel electrophoresis and quantified by spectrophotometry.
Xenopus laevis oocytes were prepared, as previously described. Briefly, oocytes were defolliculated after surgical retrieval by type 1 A collagenase over 2-3 h under smooth horizontal agitation. They were manually selected and incubated at 19 °C in modified-Barth’s solution (1 mM KCl, 0.82 mM MgSO4, 88 mM NaCl, 2.4 mM NaHCO3, 0.41 mM CaCl2, Ca(NO3)2 0.3 mM, 16 mM HEPES, pH 7.4) supplemented with 100 U mL^−1 of penicillin and streptomycin and 0.1 mg mL^−1 of gentamycin. Each oocyte was micro-injected with the Nanoject instrument (Drummond) with 50 nL of 20 ng of mRNA coding for the Orco of interest. Injected oocytes were incubated individually in 96-well plates for 4 days at 19 °C in the same buffer. Different batches of oocytes have been tested per construct. The results of the mutants of interest have been confirmed by a second set of experiments comparing the amplitudes with WT in the same day and from the same batch of oocytes (Supplementary Fig. 11).
Whole cell currents were recorded with the two-electrode voltage-clamp (TEVC) technique with the HiClamp robot (MultiChannel System). Microelectrodes were filled with 3 M KCl. The high K^+ buffer used for recordings was composed of 91 mM KCl, 1 mM MgCl2, 1.8 mM CaCl2, 5 mM HEPES, pH 7.4. Membrane voltage was clamped to −50 mV and VUAA1 was applied for 60 s. Data were extracted with M. Vivaudou’s programs[65] and statistically analyzed with Prism 8 (Graphpad).

DmelOrco V206A = DmelOrco V206A (Drosophila melanogaster, UniProt Q9VNB5, V206A); experiment: TEVC recording of VUAA1-induced current, DmelOrco V206A in Xenopus oocytes; type: cell-based; set-up: VUAA1-induced current, V206A: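 current amplitude in µA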
Excerpt: as §1, with “sequenced. For in vitro transcription, DNAs were linearized with restriction enzyme NotI that cuts a unique site in the 3′ region of the polyA tail.” for “sequenced.”
as §4

DmelOrco Y397S = DmelOrco Y397S (Drosophila melanogaster, UniProt Q9VNB5, Y397S); experiment: TEVC recording of VUAA1-induced current, DmelOrco Y397S in Xenopus oocytes; type: cell-based
Excerpt: as §1, with “sequenced. For in vitro transcription, DNAs were linearized with restriction enzyme NotI that cuts a unique site in the 3′ region of the polyA tail.” for “sequenced.”
as §4

DmelOrco Y397A = DmelOrco Y397A (Drosophila melanogaster, UniProt Q9VNB5, Y397A); experiment: TEVC recording of VUAA1-induced current, DmelOrco Y397A in Xenopus oocytes; type: cell-based; set-up: VUAA1-induced current, Y397A: unit not given here
Excerpt: as §1, with “sequenced. For in vitro transcription, DNAs were linearized with restriction enzyme NotI that cuts a unique site in the 3′ region of the polyA tail.” for “sequenced.”
as §4

DmelOrco Y397F, sequence (Q9VNB5 whole entry Y397F, the tested form may be a part): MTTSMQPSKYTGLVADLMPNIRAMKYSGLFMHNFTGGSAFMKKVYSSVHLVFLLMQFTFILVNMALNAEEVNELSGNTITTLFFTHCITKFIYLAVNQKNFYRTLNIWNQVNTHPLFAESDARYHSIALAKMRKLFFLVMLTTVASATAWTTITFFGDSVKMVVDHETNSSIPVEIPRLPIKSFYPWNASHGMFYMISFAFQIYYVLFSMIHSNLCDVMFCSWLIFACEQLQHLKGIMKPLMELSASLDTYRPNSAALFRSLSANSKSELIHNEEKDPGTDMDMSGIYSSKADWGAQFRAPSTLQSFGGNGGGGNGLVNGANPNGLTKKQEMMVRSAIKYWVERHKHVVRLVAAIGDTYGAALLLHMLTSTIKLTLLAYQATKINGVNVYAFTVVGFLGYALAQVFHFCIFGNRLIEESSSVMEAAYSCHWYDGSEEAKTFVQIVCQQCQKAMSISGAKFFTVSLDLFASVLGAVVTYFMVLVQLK
DmelOrco T80W, sequence (Q9VNB5 whole entry T80W, the tested form may be a part): as the sequence (Q9VNB5 whole entry Y397F, the tested form may be a part) above, with T80W, F397Y counted along it
DmelOrco W150A, sequence (Q9VNB5 whole entry W150A, the tested form may be a part): as the sequence (Q9VNB5 whole entry Y397F, the tested form may be a part) above, with W150A, F397Y counted along it
DmelOrco Y397A, sequence (Q9VNB5 whole entry Y397A, the tested form may be a part): as the sequence (Q9VNB5 whole entry Y397F, the tested form may be a part) above, with F397A counted along it
DmelOrco V206A, sequence (Q9VNB5 whole entry V206A, the tested form may be a part): as the sequence (Q9VNB5 whole entry Y397F, the tested form may be a part) above, with V206A, F397Y counted along it
DmelOrco Y397S, sequence (Q9VNB5 whole entry Y397S, the tested form may be a part): as the sequence (Q9VNB5 whole entry Y397F, the tested form may be a part) above, with F397S counted along it
DmelOrco F84W, sequence (Q9VNB5 whole entry F84W, the tested form may be a part): as the sequence (Q9VNB5 whole entry Y397F, the tested form may be a part) above, with F84W, F397Y counted along it
DmelOrco F83A, sequence (Q9VNB5 whole entry F83A, the tested form may be a part): as the sequence (Q9VNB5 whole entry Y397F, the tested form may be a part) above, with F83A, F397Y counted along it
DmelOrco Y400W, sequence (Q9VNB5 whole entry Y400W, the tested form may be a part): as the sequence (Q9VNB5 whole entry Y397F, the tested form may be a part) above, with F397Y, Y400W counted along it
DmelOrco L141V, sequence (Q9VNB5 whole entry L141V, the tested form may be a part): as the sequence (Q9VNB5 whole entry Y397F, the tested form may be a part) above, with L141V, F397Y counted along it
DmelOrco L141W, sequence (Q9VNB5 whole entry L141W, the tested form may be a part): as the sequence (Q9VNB5 whole entry Y397F, the tested form may be a part) above, with L141W, F397Y counted along it

CCc1ccc(NC(=O)CSc2nnc(-c3cccnc3)n2CC)cc1 [VUAA1, N-(4-ethylphenyl)−2-((4-ethyl-5-(3-pyridinyl)−4H-1,2,4-triazol-3-yl)thio)acetamide]
Response to VUAA1 compared with WT (DmelOrco L141W): did not induce significant change | Response to VUAA1 compared with WT (DmelOrco Y397F; 500 µM VUAA1, TEVC, Y397F): did not significantly change the amplitude of activation | VUAA1-induced current, Y397F (DmelOrco Y397F; Fig.4b, individual oocytes): 14.1 and 7.4 and 4.67 and 7.65 and 5.6 and 7.22 and 3.47 and 4.51 and 1.74 and 9.4 and 9.69 and 15.89 | Response to VUAA1 compared with WT (DmelOrco L141V): did not induce significant change | Current induced by VUAA1 (median) (DmelOrco F83A): 2.33 µA | pEC50 (AgamOrco/AgamOR65): 4.43 | Response to VUAA1 compared with WT (DmelOrco W150A; 500 µM VUAA1, TEVC, W150A): did not significantly affect the amplitude of activation | VUAA1-induced current, W150A (DmelOrco W150A; Fig.4b, individual oocytes): 4.32 and 3.86 and 5.79 and 2.71 and 5.07 and 2.76 and 2.23 and 2.97 and 2.04 and 1.54 and 0.79 and 4.84 and 4.06 and 8 | Response to VUAA1 compared with WT (DmelOrco F84W): did not induce a significant change | Response to VUAA1 compared with WT (DmelOrco Y400W): did not significantly change the response | Response to VUAA1 compared with WT (DmelOrco T80W; 500 µM VUAA1, TEVC, T80W): significantly reduced or abolished the activation | VUAA1-induced current, T80W (DmelOrco T80W; Fig.4b): 0.01 and 0.63 and 0.07 and 0.04 and 0.05 and 0.57 and 0.84 and 0.02 | VUAA1-induced current, T80W (DmelOrco T80W; Fig.4i dose-response, VUAA1 10 µM (Log(M) -5)): 0.03 and 0.06 (2×) and 0.07 and 0.2 (2×) and 0 and 0.12 | VUAA1-induced current, T80W (DmelOrco T80W; Fig.4i dose-response, VUAA1 25 µM (Log(M) -4.6)): 0.05 and 0.08 and 0.11 and 0.35 and 0.01 and 0.07 and 0.14 and 0.15 | VUAA1-induced current, T80W (DmelOrco T80W; Fig.4i dose-response, VUAA1 50 µM (Log(M) -4.3)): 0.09 and 0.1 and 0.13 and 0.45 and 0.01 and 0.05 and 0.31 and 0.15 | VUAA1-induced current, T80W (DmelOrco T80W; Fig.4i dose-response, VUAA1 100 µM (Log(M) -4)): 0.12 and 0.1 and 0.13 (2×) and 0.42 and 0 and 0.08 and 0.29 | VUAA1-induced current, T80W (DmelOrco T80W; Fig.4i dose-response, VUAA1 500 µM (Log(M) -3.3)): 0.19 and 0.12 (3×) and 0.14 and 0.45 and 0.01 and 0.07 | VUAA1-induced current, T80W (DmelOrco T80W; Fig.4i dose-response, VUAA1 1000 µM (Log(M) -3)): 0.26 and 0.16 and 0.18 and 0.47 and 0.02 and 0.23 and 0.31 and 0.1 | Imax (DmelOrco T80W; concentration-effect curve of VUAA1, TEVC, T80W): 0.23 µA | Response to VUAA1 compared with WT (DmelOrco V206A; 500 µM VUAA1, TEVC, V206A): did not significantly affect the amplitude of activation | VUAA1-induced current, V206A (DmelOrco V206A; Fig.4b, individual oocytes): 5.13 and 5.19 and 4.77 and 3.78 and 5.39 and 5.08 and 2.86 and 2.36 | Response to VUAA1 compared with WT (DmelOrco Y397S; 500 µM VUAA1, TEVC, Y397S): no significant effect; also recorded: did not significantly change the amplitude of activation | VUAA1-induced current, Y397S (DmelOrco Y397S; Fig.4b, individual oocytes): 0.98 and 1.78 and 4.23 and 0.82 and 0.77 and 1.48 and 8.3 and 6.29 and 5.87 and 5.52 and 1.76 and 2.18 and 1.83 | Response to VUAA1 compared with WT (DmelOrco Y397A; 500 µM VUAA1, TEVC, Y397A): did not significantly affect the amplitude of activation; also recorded: did not significantly change the amplitude of activation | VUAA1-induced current, Y397A (DmelOrco Y397A; Fig.4b, individual oocytes): 3.14 and 11.04 and 1.66 and 7.27 and 3.17 and 5.5 and 5.32 and 6.03 and 4.8 and 7.35 and 2.62
